Key:
[1] = target: T1, PAF specific receptor binding site on rabbit platelet plasma membranes (Oryctolagus cuniculus, UniProt G1TEI7); test: Inhibition of 3H-PAF binding to rabbit platelet plasma membrane; details: 1 h
T1 construct: 100 μg of the platelet plasma membrane suspension; from tissue; host or cells: rabbit platelet plasma membranes
Description: The inhibition of H^3 -PAF binding to the rabbit platelet plasma membrane by a PAF-antagonist of Formula (I) was determined by a method employing isotopic labeling and filtration techniques. Generally, a series of Tris-buffered solutions of the selected antagonist at predetermined concentrations were prepared. […] After adding into a set of test tubes each with 100 μg of the platelet plasma membrane suspension and one of the Tris-buffer solutions described above, the resulting mixture in each test tube was incubated at 0° C. for about one hour or until the reaction was complete. Two control samples, one of which (C1) contains all the ingredients described above except the antagonist and the other (C2) contains C1 plus a 1000-fold excess of unlabelled PAF, were also prepared and incubated simultaneously with the test samples. After the incubation was completed, the contents of each test tube were filtered under vacuo through a Whatman GF/C fiberglass filter and the residue washed rapidly several times with a total of 20 ml cold (0°-5° C.) Tris-buffer solution. Each washed residue was then suspended in 10 ml scintillation solution (Aquasol 2, New England Nuclear, Conn.) and the radioactivity was counted in a Packard Tri-Carb 460CD Liquid Scintillation System. Defining the counts from a test sample as "Total binding with antagonist"; the counts from the control sample C1, as "Total binding C1 "; and the counts from the control sample C2 as "non-specific binding C2 ", the percent inhibition of each test antagonist can be determined by the following equation: [formula]

[2] = tested on: PAF-induced cutaneous vascular permeability; test: Method I: oral inhibition of PAF-induced increase of cutaneous vascular permeability; format: in vivo; details: guinea pig, dose 50 mg/kg PO
Excerpt: The specific PAF-antagonistic activities are further established by two in vivo assays (Modified procedure of Humphrey et al. Lab. Investigation, 46, 422 (1982)) following the protocols described below:
Method I: Protocol for the evaluation of the oral activity of PAF antagonists or the inhibition of PAF-induced increase of vasopermeability by PAF-antagonists
I. Animal species: 5 guinea pigs (400-500 g)
II. Material: 0.5% (w/v) aqueous methylcellulose solution sodium nembutol
2% Evans Blue solution: 2 g of Evans Blue in 100 ml of pH 7.5 Tris-Buffer solution
Tris-Buffer solution: 150 mM NaCl and 10 mM Tris/ml with pH adjusted to 7.5.
1. Weigh the guinea pigs. Label them as control, T1, T2, T3 and T4.
2. Fast the animals overnight.
3. Weigh the animals again after the fasting.
4. Ground and suspend a PAF antagonist of formula (I) with intensive sonication in 3 ml of 0.5% aqueous methylcellulose solution.
5. […]
8. […] In the meantime, shave the backs of the guinea pigs and get ready for the PAF injection. […]
15. Measure the absorbance of each supernatant from Step (14) ("skin sample") as well as the plasma extract from Step (13) ("plasma sample") at 620 nm with a Cary 210 spectrophotometer (Varian, Palo Alto, CA). […]

[3] = tested on: PAF-induced degranulation; test: Method II: inhibition of PAF-induced degranulation in rats; format: in vivo, rat; details: oral dose of 50 mg/kg
PAF = test: PAF-antagonist activity (general comparison)

T1 sequence (G1TEI7 1-342): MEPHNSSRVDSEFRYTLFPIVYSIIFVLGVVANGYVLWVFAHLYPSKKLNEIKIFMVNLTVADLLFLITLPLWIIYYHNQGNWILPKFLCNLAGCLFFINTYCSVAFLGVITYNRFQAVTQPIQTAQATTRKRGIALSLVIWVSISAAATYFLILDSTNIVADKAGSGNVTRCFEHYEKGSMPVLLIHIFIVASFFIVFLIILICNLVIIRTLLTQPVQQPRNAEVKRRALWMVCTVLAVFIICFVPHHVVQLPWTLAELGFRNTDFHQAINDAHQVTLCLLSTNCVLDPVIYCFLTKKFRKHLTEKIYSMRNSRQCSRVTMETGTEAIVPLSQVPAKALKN

Row | SMILES | inhibition at 5 µM [1] [%] | inhibition at 1 µM [1] [%] | inhibition at 10 µM [1] [%] | further results
1 | COc1cccc([C@H]2O[C@@H](c3ccccc3)[C@@H](C)[C@H]2C)c1 (relative stereo) [R=CH3; R1=CH3; Ar=3-methoxyphenyl; Ar1=phenyl; isomer (4)] | – | 28 | 49 | –
2 | C[C@@H]1[C@@H](C)[C@H](c2ccccc2)O[C@@H]1c1ccccc1 (relative stereo) [R=CH3; R1=CH3; Ar=phenyl; Ar1=phenyl; isomer (1)] | 13 | – | – | –
3 | COc1ccc([C@H]2O[C@@H](c3ccc(OC)c(OC)c3)[C@@H](C)[C@H]2C)cc1OC [R=CH3; R1=CH3; Ar=3,4-dimethoxyphenyl; Ar1=Same as Ar; isomer (4), All cis-3,4-Dimethyl-2,5-bis(3,4-dimethoxyphenyl)-tetrahydrofuran] | – | – | – | % inhibition [2]: 30%; inhibition of PAF-induced degranulation [3]: 49%; PAF-antagonist activity, rank in words (PAF): most active PAF-antagonist
4 | COc1ccc([C@H]2O[C@@H](c3ccc(OC)cc3)[C@H](C)[C@H]2C)cc1 (relative stereo) [R=CH3; R1=CH3; Ar=4-methoxyphenyl; Ar1=Same as Ar; isomer (1)] | – | – | 47 | –
5 | COc1cc([C@H]2O[C@@H](c3cc(OC)c(OC)c(OC)c3)[C@H](C)[C@H]2C)cc(OC)c1OC (relative stereo) [R=CH3; R1=CH3; Ar=3,4,5-trimethoxyphenyl; Ar1=Same as Ar; isomer (1)] | 61 | – | – | inhibition at 0.5 µM ([1]; dose 0.5 (μm)): 42%
6 | COc1cc([C@H]2O[C@@H](c3cc(OC)c(OC)c(OC)c3)[C@@H](C)[C@H]2C)cc(OC)c1OC [R=CH3; R1=CH3; Ar=3,4,5-trimethoxyphenyl; Ar1=Same as Ar; isomer (4)] | 48 | 12 | – | inhibition at 20 µM [1]: 68%
7 | COC(=O)[C@@H]1[C@@H](C(=O)OC)[C@H](c2cc(OC)c(O)cc2Cl)O[C@@H]1c1cc(OC)c(O)cc1Cl (relative stereo) | – | 15 | – | –
8 | C[C@@H]1[C@H](C)[C@H](c2ccccc2)O[C@@H]1c1ccc2c(c1)OCO2 (relative stereo) [R=CH3; R1=CH3; Ar=3,4-methylenedioxyphenyl; Ar1=phenyl; isomer (4)] | – | 11 | 45 | –
9 | COc1cc([C@@H]2O[C@@H](c3cc(OC)c(OC)c(OC)c3)[C@H](C)[C@H]2C)cc(OC)c1OC (relative stereo) [R=CH3; R1=CH3; Ar=3,4,5-trimethoxyphenyl; Ar1=Same as Ar; isomer (2)] | 39 | 2 | – | inhibition at 20 µM [1]: 63%

Continued, in another order:

Row | inhibition at 5 µM [1] [%] | inhibition at 1 µM [1] [%] | inhibition at 10 µM [1] [%] | SMILES | further results
10 | 62 | – | – | COC[C@H]1[C@@H](C)[C@@H](c2ccc(OC)c(OC)c2)O[C@H]1c1ccc(OC)c(OC)c1 (relative stereo) [R=CH3; R1=CH2OCH3; Ar=3,4-dimethoxyphenyl; Ar1=Same as Ar; isomer (4)] | –
11 | – | – | 52 | COc1ccc(OC)c(C2OC(c3cc(OC)ccc3OC)C(C)C2C)c1 (stereo not shown) | –
12 | – | 9 | 100 | COc1ccc([C@H]2O[C@@H](c3ccccc3)[C@@H](C)[C@H]2C)cc1OC (relative stereo) [R=CH3; R1=CH3; Ar=3,4-dimethoxyphenyl; Ar1=phenyl; isomer (4)] | –
13 | – | 63 | – | CCOC(=O)[C@@H]1[C@@H](C(=O)OCC)[C@H](c2ccc(OC)c(OC)c2)O[C@@H]1c1ccc(OC)c(OC)c1 (relative stereo) [R=CO2Et; R1=CO2Et; Ar=3,4-dimethoxyphenyl; Ar1=Same as Ar; isomer (1)] | –
14 | – | 18 | – | COc1ccc([C@H]2O[C@@H](c3ccc(OC)c(OC)c3)[C@@H](C)[C@H]2C(=O)O)cc1OC (relative stereo) [R=COOH; R1=CH3; Ar=3,4-dimethoxyphenyl; Ar1=Same as Ar; isomer (4)] | –
15 | – | 33 | – | COC(=O)[C@@H]1[C@H](C)[C@H](c2ccc(OC)c(OC)c2)O[C@@H]1c1ccc(OC)c(OC)c1 (relative stereo) [R=CO2CH3; R1=CH3; Ar=3,4-dimethoxyphenyl; Ar1=Same as Ar; isomer (4)] | –
